From ChEMBL document CHEMBL1201862, “PubChem BioAssay data set” (2004)
The source made the active and inactive calls.

Assays:
Cytochrome P450 2C19 = Cytochrome P450 2C19 (Homo sapiens, UniProt P33261); test: Cytochrome panel assay with activity outcomes. Panel member name: p450-cyp2c19 Compounds with AC50 equal or less than 10 uM are considered active; format: functional
Cytochrome P450 2C9 = Cytochrome P450 2C9 (Homo sapiens, UniProt P11712)
Cytochrome P450 1A2 = molecular target: T1, Cytochrome P450 1A2 (Homo sapiens, UniProt P05177);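 also: PubChem cytochrome P450 panel assay, CYP1A2 panel member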
T1 sequence (P05177 whole entry): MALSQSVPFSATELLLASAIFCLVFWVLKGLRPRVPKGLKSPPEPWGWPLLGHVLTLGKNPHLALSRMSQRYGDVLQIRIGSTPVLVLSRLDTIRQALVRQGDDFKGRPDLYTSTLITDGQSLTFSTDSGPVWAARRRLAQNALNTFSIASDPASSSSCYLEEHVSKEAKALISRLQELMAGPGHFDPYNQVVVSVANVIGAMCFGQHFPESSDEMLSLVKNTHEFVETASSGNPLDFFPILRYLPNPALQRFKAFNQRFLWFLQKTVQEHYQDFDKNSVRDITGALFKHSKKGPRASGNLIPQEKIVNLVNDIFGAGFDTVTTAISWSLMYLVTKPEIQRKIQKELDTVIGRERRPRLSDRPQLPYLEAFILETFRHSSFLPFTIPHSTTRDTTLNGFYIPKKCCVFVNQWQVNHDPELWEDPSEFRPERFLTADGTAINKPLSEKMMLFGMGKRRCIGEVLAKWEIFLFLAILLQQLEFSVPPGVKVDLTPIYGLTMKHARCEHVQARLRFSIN

[1] = molecular target: T2, Calpain-2 catalytic subunit (Sus scrofa, UniProt P43367); test: m-calpain protease blockers, concentration series – biochemical, fluorogenic peptide substrate, dose response (AID 1420); format: functional
T2 sequence (P43367 whole entry): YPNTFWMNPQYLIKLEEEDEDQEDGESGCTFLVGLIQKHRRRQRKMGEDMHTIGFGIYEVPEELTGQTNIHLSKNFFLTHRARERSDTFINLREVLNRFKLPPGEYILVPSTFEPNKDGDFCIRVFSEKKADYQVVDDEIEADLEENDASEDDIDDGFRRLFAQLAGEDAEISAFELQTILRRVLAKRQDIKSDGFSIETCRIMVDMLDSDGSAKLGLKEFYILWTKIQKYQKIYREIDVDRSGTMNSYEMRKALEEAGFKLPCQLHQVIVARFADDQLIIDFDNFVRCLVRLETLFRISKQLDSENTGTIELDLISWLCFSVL

[2] = Luminescence Cell-Based Dose Confirmation HTS to Identify Activators of 5'UTR Stem-Loop Driven Alpha-Synuclein mRNA Translation in H4 Neuroglioblastoma Cells. [Related pubchem assays: 1829 (Project Summary), 1814 (Primary HTS)]; format: functional
[3] = Luminescence Cell-Based Dose Response HTS to Identify Activators of Luciferase Translation or Activity in H4 […] Cells. [Related pubchem assays: 1829 (Project Summary), 1814 (Primary HTS)]; format: functional
H4 = test: Luminescence Cell-Based Dose Response HTS to Identify Activators of 5'UTR Stem-Loop Driven Prion Protein mRNA Translation in H4 Neuroglioblastoma Cells. [Related pubchem assays: 1829 (Project Summary), 1814 (Primary HTS)]; format: functional; details: Homo sapiens
Large T antigen = Large T antigen (Simian virus 40, UniProt P03070); format: functional, Betapolyomavirus macacae;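 also: Confirmatory-stage PubChem screen for compounds that inhibit SV40 T antigen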
Chain of Large T antigen (P03070 whole entry): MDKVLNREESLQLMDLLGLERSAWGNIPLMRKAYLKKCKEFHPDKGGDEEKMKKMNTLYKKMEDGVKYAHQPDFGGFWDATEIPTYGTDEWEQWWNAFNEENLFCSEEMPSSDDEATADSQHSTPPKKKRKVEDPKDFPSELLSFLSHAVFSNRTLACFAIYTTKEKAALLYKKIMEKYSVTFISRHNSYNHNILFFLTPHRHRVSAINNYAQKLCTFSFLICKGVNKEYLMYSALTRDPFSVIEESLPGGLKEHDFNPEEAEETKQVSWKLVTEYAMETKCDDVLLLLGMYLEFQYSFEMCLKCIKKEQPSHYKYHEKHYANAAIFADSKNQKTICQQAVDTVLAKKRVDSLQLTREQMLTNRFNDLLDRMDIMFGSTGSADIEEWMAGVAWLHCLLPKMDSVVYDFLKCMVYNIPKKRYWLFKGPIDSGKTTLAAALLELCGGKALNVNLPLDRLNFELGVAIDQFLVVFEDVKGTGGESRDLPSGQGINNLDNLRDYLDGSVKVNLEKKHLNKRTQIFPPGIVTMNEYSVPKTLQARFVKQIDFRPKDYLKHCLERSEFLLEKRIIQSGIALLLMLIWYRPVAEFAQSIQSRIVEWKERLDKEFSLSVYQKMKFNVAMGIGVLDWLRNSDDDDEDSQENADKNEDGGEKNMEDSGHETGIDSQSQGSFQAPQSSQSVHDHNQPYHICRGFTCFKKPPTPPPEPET

Cytochrome P450 3A4 = Cytochrome P450 3A4 (Homo sapiens, UniProt P08684);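 also: CYP3A4 tested as one member of a cytochrome P450 panel screen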
Chain of Cytochrome P450 3A4 (P08684 whole entry): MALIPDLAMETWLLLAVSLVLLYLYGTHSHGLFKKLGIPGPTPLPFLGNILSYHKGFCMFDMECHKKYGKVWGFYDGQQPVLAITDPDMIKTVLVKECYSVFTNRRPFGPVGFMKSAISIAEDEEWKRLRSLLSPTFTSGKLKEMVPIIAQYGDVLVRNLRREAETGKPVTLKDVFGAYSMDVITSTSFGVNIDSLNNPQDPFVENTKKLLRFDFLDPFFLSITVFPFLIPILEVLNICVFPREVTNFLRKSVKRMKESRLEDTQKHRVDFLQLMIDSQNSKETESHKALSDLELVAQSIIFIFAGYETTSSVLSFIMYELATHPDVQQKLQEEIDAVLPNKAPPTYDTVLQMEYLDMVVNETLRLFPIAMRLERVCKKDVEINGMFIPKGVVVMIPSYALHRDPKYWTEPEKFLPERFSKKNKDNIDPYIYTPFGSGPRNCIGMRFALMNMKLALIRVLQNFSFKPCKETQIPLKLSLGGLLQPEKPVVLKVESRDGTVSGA

[4] = molecular target: Luciferin 4-monooxygenase (Photinus pyralis, UniProt P08659); test: inhibition of purified Photinus pyralis luciferase – biochemical, luminescence, dose response (AID 1891)
Chain of Luciferin 4-monooxygenase (P08659 whole entry): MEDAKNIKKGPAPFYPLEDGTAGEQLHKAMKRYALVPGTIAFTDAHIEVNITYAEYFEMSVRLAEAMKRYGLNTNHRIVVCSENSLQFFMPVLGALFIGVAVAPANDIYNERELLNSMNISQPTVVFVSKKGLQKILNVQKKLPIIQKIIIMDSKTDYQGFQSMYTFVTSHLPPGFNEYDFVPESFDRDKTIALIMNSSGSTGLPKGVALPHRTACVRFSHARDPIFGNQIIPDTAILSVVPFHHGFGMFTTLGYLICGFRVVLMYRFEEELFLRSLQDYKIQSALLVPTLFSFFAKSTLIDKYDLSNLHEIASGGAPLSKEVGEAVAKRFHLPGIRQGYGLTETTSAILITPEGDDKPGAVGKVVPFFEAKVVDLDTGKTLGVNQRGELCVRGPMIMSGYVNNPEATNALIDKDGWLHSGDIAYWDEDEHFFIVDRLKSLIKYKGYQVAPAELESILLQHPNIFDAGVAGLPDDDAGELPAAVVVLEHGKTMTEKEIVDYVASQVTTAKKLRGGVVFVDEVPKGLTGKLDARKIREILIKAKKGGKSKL

[5] = Luminescence Cell-Based Dose Confirmation HTS to Identify Inhibitors of Platelet Dense Granule Release. [Related pubchem assays: 1663 (Primary HTS), 1678 (Summary of Project)]; format: functional
[6] = molecular target: T3, Zinc finger protein mex-5 (Caenorhabditis elegans, UniProt Q9XUB2); test: potency of MEX-5 RNA-binding blockers – biochemical, C. elegans, fluorescence polarization, dose response (AID 1960)
T3 sequence (Q9XUB2 whole entry): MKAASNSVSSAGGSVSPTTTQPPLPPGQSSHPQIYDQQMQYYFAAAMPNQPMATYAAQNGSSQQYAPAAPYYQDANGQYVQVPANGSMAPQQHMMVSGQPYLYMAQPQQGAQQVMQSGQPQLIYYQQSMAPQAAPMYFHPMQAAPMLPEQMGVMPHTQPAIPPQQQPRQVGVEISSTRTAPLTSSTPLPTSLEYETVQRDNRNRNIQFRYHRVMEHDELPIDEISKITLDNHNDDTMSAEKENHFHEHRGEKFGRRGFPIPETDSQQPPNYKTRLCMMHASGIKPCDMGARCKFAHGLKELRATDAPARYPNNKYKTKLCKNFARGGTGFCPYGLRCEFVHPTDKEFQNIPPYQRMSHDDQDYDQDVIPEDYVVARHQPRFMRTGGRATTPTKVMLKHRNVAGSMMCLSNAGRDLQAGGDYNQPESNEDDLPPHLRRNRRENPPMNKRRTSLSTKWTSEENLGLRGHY

[7] = molecular target: T4, RNA-binding protein pos-1 (Caenorhabditis elegans, UniProt G5EF15); test: disruptors of C. elegans POS-1 RNA interaction – biochemical, fluorescence polarization, dose response (AID 1964);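 also: purified POS-1 fused to maltose binding protein made in E. coli; potency of compounds blocking POS-1 binding to fluorescent RNA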
T4 sequence (G5EF15 whole entry): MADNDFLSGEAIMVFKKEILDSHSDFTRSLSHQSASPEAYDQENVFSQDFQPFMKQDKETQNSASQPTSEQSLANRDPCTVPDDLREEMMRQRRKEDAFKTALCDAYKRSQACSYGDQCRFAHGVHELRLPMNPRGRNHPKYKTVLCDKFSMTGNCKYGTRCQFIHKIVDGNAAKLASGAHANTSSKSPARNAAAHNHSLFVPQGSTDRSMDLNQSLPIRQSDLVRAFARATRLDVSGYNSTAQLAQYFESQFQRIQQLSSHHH

Chain of Cytochrome P450 2C9 (P11712 whole entry): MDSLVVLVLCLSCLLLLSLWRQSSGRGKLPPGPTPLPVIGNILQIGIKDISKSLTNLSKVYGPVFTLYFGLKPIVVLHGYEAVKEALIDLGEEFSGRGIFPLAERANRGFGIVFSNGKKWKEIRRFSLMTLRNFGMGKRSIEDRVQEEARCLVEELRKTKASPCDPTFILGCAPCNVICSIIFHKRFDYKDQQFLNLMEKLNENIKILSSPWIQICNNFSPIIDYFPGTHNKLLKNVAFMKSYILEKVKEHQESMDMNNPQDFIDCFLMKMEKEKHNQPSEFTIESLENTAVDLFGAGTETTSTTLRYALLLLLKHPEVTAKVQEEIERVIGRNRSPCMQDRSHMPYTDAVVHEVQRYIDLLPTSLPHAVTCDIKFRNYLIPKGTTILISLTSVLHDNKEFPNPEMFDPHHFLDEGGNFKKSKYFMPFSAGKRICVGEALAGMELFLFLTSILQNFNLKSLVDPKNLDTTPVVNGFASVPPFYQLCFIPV
Chain of Cytochrome P450 2C19 (P33261 whole entry): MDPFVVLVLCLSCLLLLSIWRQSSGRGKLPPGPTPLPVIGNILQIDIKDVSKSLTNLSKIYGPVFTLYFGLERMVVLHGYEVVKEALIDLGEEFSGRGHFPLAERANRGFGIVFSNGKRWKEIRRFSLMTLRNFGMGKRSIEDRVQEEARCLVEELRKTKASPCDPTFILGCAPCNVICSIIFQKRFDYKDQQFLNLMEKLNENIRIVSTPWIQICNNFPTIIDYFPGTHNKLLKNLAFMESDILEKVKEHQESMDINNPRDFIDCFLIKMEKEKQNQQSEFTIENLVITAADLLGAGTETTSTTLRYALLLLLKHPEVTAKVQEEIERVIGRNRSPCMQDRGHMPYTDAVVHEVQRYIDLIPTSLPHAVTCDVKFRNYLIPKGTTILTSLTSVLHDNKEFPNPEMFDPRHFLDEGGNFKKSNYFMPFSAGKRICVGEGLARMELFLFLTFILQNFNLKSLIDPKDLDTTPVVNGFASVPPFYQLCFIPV

For `Cc1ccc(C(=O)NC(=S)Nc2cc(C(F)(F)F)ccc2Cl)cc1`, the AC50 (Cytochrome P450 2C19) was “inconclusive”, the AC50 (Cytochrome P450 2C9) was “inconclusive” and the AC50 (Cytochrome P450 1A2) was 0.562 µM (inconclusive).
For `COc1ccc(C(=O)CSc2nc(N)nc(SC)c2C#N)cc1`, the IC50 [1] was 17.3 µM (not active).
With `CCC(=O)N1CCc2nc(-c3ccccc3)sc2C1` the EC50 [2] was 7.33 µM (active), the EC50 [3] was 20.4 µM (active) and the EC50 (H4) was 46.3 µM (active).
In the case of `COc1ccc(COC(=O)Nc2cc3c(C(F)(F)F)nn(C)c3s2)cc1`, the IC50 [1] is reported as 14 µM (active).
For `CN(C)c1nn(C(=O)Nc2ccc(Cl)cc2Cl)cc1-c1ccccc1`, the IC50 (Large T antigen) was 38 µM (active).
In the case of `Cc1ccc(-c2nnc(CCC(=O)NCC3C4CC5CC(C4)CC3C5)o2)s1` (stereo not drawn), the EC50 [2] is reported as 11.6 µM (active), the EC50 [3] is reported as 17.6 µM (active) and the EC50 (H4) is reported as 20.2 µM (active).
For `Cc1ccccc1N1C(=O)NC(=O)/C(=C/Nc2ccc(N(C)C)cc2)C1=O`, the AC50 (Cytochrome P450 2C19; read-out: AC50) was 22.4 µM (inconclusive), the AC50 (Cytochrome P450 3A4) was 0.398 µM (inconclusive) and the IC50 (Large T antigen) was 6.73 µM (active).
With `Cc1nc(NC(=O)c2ccccc2)sc1-c1csc(Nc2ccc(Cl)cc2)n1` the AC50 (Cytochrome P450 2C9) was “inconclusive” and the AC50 (Cytochrome P450 1A2) was 7.08 µM (inconclusive).
In the case of `Cc1ccc(NC(=O)CN2CCC(Cc3ccccc3)CC2)cc1S(=O)(=O)N(C)C`, the IC50 [1] is reported as 27.3 µM (not active).
With `Cc1ccc2nc(N3CCN(C(=O)c4ccco4)CC3)sc2c1` the EC50 [2] was 5.76 µM (active), the EC50 [3] was > 120 µM (not active) and the EC50 (H4) was 34.9 µM (active).
For `COc1ccccc1OCCN1C(=O)S/C(=C\c2ccco2)C1=O`, the AC50 (Cytochrome P450 2C9) was “inconclusive”.
With `CCn1cc(NC(=O)Nc2ccccc2C(=O)OC)c(C(N)=O)n1` the EC50 [4] was > 112 µM (not active) and the EC50 [5] was > 112 µM (not active).
For `CCOC(=O)C(OC(=O)c1sc(=S)n(C)c1C)C(C)=O` (stereo not drawn), the EC50 [4] was > 112 µM (not active) and the EC50 [5] was > 112 µM (not active).
With `COC(=O)c1ccc(NC(S)=NC2CC3CCC2C3)cc1` (stereo not drawn) the IC50 [1] was 16.4 µM (active).
With `O=C(NCCCN1CCOCC1)C1Nc2ccc(OC(F)(F)F)cc2C2C=CCC12` (stereo not drawn) the EC50 [6] was > 300 µM (not active) and the EC50 [7] was > 300 µM (not active).
With `CCOC(=O)c1ccc(NC(=O)Cn2c(-c3nonc3N)nc3ccccc32)cc1` the IC50 [1] was 18.8 µM (not active).
In the case of `O=C(NC1CC1)C1Nc2ccc(OC(F)(F)F)cc2C2C=CCC12` (stereo not drawn), the EC50 [6] is reported as > 300 µM (not active) and the EC50 [7] is reported as > 300 µM (not active).
For `CCCCNC(=O)c1ccccc1C(=O)NCCCC`, the IC50 [1] was < 0.4 µM (not active).
For `CCC1CCCCN1CCCNC(=O)Cn1c2ccccc2c2nc(=O)cc(C)n21` (stereo not drawn), the EC50 [2] was > 120 µM (not active), the EC50 [3] was > 120 µM (not active) and the EC50 (H4) was > 120 µM (not active).
With `O=C(OCCc1ccccc1)c1cc(O)c(O)c(O)c1` the EC50 [6] was 29.6 µM (active), the EC50 [7] was > 300 µM (not active) and the IC50 (Large T antigen) was > 100 µM (active).
For `Cc1ccc(-c2nc3ncccn3c2NC(=O)C2CC2)cc1`, the AC50 (Cytochrome P450 2C19) was “inconclusive”, the EC50 [4] was > 112 µM (not active) and the EC50 [5] was > 112 µM (not active). For the same compound, the AC50 (Cytochrome P450 1A2) was 15.8 µM (inconclusive).
